The subject of experiment [1] is Mycobacterium tuberculosis. The experiment is described as follows: Inhibition of oleate production in Mycobacterium bovis BCG. In kind it is functional, variant bovis BCG. Particulars: for inhibition: variant bovis BCG.
In experiment [2] the test system is Mycobacterium tuberculosis. Description: Antibacterial activity against Mycobacterium bovis BCG. Particulars: variant bovis BCG. In kind it is functional.

≈ marks a conversion by molar mass, not a printed value. Calls of active or inactive are those of the source. No cut-off for these calls is given here.

Broadly, the Inhibition is how much of the control response was suppressed. Broadly, the MIC99 is an inhibitory concentration at the 99% level, which refers to growth in some studies and to a panel of isolates in others. High values mean lower susceptibility, low ones higher susceptibility.

Regarding `CC(C)CCOc1ccc(NC(=S)Nc2ccc(OCC(C)C)cc2)cc1`, in experiment [1], the Inhibition is given as 19.24%. Besides, in experiment [2], the MIC99 was 0.9 µg/mL (≈ 2.33 µM).
`CCCCc1ccc(NC(=S)Nc2ccc(OCCC(C)C)cc2)cc1`: in experiment [1], the Inhibition is on record as 14.82%. The compound also displayed an MIC99 in experiment [2] of 0.6 µg/mL (≈ 1.62 µM).
Take `CCCCOc1ccc(NC(=S)Nc2ccc(OCC(C)C)cc2)cc1`: the Inhibition in experiment [1] is 63.99%. The same compound had an MIC99 in experiment [2] of 0.6 µg/mL (≈ 1.61 µM).
As for `CCCCc1ccc(NC(=S)Nc2ccc(OCCC)cc2)cc1`, in experiment [1], the inhibition result is “inactive”. This compound also had an MIC99 in experiment [2] of 0.06 µg/mL (≈ 0.175 µM).
Turning to `CC(C)CSc1ccc(NC(=S)Nc2ccc(SCC(C)C)cc2)cc1`, the inhibition entry in experiment [1] is “inactive”. Besides, the MIC99 in experiment [2] stood at 0.6 µg/mL (≈ 1.48 µM).
With `CCCSc1ccc(NC(=S)Nc2ccc(OCCC(C)C)cc2)cc1`, the Inhibition in experiment [1] worked out at 53.32%. The compound also gave an MIC99 in experiment [2] of 0.5 µg/mL (≈ 1.29 µM).
The matching figures for `CCCOc1ccc(NC(=S)Nc2ccc(OCCC)cc2)cc1`: 90.76% and 0.5 µg/mL (≈ 1.45 µM).
For `CCCCOc1ccc(NC(=S)Nc2ccc(Cc3ccccc3)cc2)cc1` the same measures were 66.15% and 1.5 µg/mL (≈ 3.84 µM).
In the case of `CCCCOc1ccc(NC(=S)Nc2ccc(SCCC)cc2)cc1`, in experiment [1], the inhibition entry was “inactive”. For the same compound, the MIC99 in experiment [2] was 0.06 µg/mL (≈ 0.16 µM).
In the case of `CC(C)CCOc1ccc(NC(=S)Nc2ccc(OCCC(C)C)cc2)cc1` [TIOCARLIDE], the Inhibition in experiment [1] amounted to 61.02%. Also, the MIC99 in experiment [2] was 1.1 µg/mL (≈ 2.75 µM).
In experiment [1], `CCCCOc1ccc(NC(=S)Nc2ccc(OCCCC)cc2)cc1` yielded an Inhibition of 94.25%. The same compound gave an MIC99 in experiment [2] of 0.5 µg/mL (≈ 1.34 µM).
Regarding `CCCSc1ccc(NC(=S)Nc2ccc(Cc3ccccc3)cc2)cc1`, in experiment [1], the inhibition entry is “inactive”. The MIC99 in experiment [2] turned out to be 1.75 µg/mL (≈ 4.46 µM).
For the compound `CCCCOc1ccc(NC(=S)Nc2ccc(SCC(C)C)cc2)cc1`, in experiment [1], the Inhibition is recorded as 17.75%. Also, in experiment [2], the MIC99 worked out at 0.7 µg/mL (≈ 1.8 µM).
The matching figures for `CC(C)COc1ccc(NC(=S)Nc2ccc(OCC(C)C)cc2)cc1`: 51.62% and 0.9 µg/mL (≈ 2.42 µM).
Regarding `CCCCc1ccc(NC(=S)Nc2ccc(CCCC)cc2)cc1`, the inhibition entry in experiment [1] was “inactive”. This compound registered an MIC99 in experiment [2] of 0.075 µg/mL (≈ 0.22 µM).
In turn, `CCCCOc1ccc(NC(=S)Nc2ccc(OCCC(C)C)cc2)cc1` came in with an Inhibition in experiment [1] of 79.96%. In experiment [2], this compound showed an MIC99 of 0.4 µg/mL (≈ 1.03 µM).
`CC(C)CCOc1ccc(NC(=S)Nc2ccc(Cc3ccccc3)cc2)cc1` yielded an Inhibition in experiment [1] of 48.83%. This compound also yielded an MIC99 in experiment [2] of 1.1 µg/mL (≈ 2.72 µM).
Take `CCCCOc1ccc(NC(=S)Nc2ccc(CCCC)cc2)cc1`: the inhibition entry in experiment [1] was “inactive”. The same compound yielded an MIC99 in experiment [2] of 0.7 µg/mL (≈ 1.96 µM).
